Assay [1] has as its target PfCRT^Dd2 (Plasmodium falciparum, UniProt Q9N623, A220S/I356T/K76T/M74I/N326S/N75E/Q271E/R371I). To be noted: cited from earlier work.
Assay [2] has as its target T1, PfCRT variant F322A (Plasmodium falciparum, UniProt Q9N623, A220S/F322A/I356T/K76T/M74I/N326S/N75E/Q271E/R371I).
T1 sequence (Q9N623 1-424 M74I/N75E/K76T/A220S/Q271E/F322A/N326S/I356T/R371I): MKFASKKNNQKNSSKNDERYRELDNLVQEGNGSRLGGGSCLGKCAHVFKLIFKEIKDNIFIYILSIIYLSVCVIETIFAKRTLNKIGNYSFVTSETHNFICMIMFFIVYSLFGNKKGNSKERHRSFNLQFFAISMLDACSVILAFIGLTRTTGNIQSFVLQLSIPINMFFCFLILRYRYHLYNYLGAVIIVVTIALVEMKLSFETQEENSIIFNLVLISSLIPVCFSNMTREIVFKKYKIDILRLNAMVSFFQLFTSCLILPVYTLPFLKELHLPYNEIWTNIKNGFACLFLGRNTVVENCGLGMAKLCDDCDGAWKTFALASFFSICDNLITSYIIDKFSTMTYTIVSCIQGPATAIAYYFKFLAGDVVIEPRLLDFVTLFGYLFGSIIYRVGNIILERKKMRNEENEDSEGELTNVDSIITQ
The experiment in a line: CQ uptake assay, oocytes expressing F322A. The format is cell-based. As for the experimental part: (§1) Site-directed mutagenesis of PfCRT^Dd2 was performed as described using the megaprimer method with overlap extension[21],[54]. The primer pairs used are listed in Supplementary Table 6. Please note that a codon-optimized and oocyte-adapted version of PfCRT^Dd2 was used[22] (Supplementary Fig. 16). The resulting DNA fragment was cloned into the SP64T expression vector and verified by sequencing.
(§2) Oocytes were obtained as described previously. Briefly, adult (>2 years old) female X. laevis frogs (NASCO) were anesthetized in a cooled solution of ethyl 3-amino benzoate methanesulfonate (0.1%, w/v), followed by a surgical removal of parts of the ovary. The ovary lobes were carefully dissected and small pieces of oocytes were incubated in Ca^2+-free ND96 buffer (96 mM NaCl, 2 mM KCl, 1 mM MgCl2 buffered with 5 mM HEPES/NaOH, pH 7.5) supplemented with collagenase D (0.1%, w/v; Roche), BSA (0.5%, w/v), and 9 mm Na2HPO4 at 18 °C for 14-16 h while gentle shaking. After incubation, the oocytes were carefully washed several times with ND96 buffer (96 mM NaCl, 2 mM KCl, 1.8 mM CaCl2, 1 mM MgCl2 buffered with 5 mM HEPES/NaOH, pH 7.5) supplemented with 100 mg l^−1 gentamycin). Defolliculated and healthy-looking stage V-VI oocytes were manually selected for RNA microinjection. The RNA was generated as following: The codon-optimized sequences of PfCRT variants were cloned into the pSP64T expression vector. After vector linearization using the restriction endonucleases BamHI or SalI (New England Biolabs), transcription was performed using the in vitro SP6 mMessage mMachine Kit (Ambion)[34]. The obtained RNA was kept at −80 °C and diluted with nuclease-free water to a concentration of 0.6 μg μl^−1. Precision-bore glass capillary tubes (3.5-inch glass capillaries; Drummond Scientific Co.) were pulled on a vertical puller (P-87 Flaming/Brown micropipette puller, Sutter Instrument Co.), graduated, and placed on a microinjector (Nanoject II Auto-Nanoliter Injector, Drummond Scientific Co.). 50 nl of nuclease-free water alone (control oocytes) or 50 nl of 0.6 μg μl^−1 RNA were injected under stereomicroscopic control. Injected oocytes were incubated for 46–72 h at 18 °C with twice-daily buffer changes before usage in experiments.
(§3) Drug uptake assays were performed as described previously[21],[22],[24],[34]. […] The direction of radio-labeled drug transport is here from the mostly acidic extracellular solution (pH 4.5 or 6.0, as indicated) into the oocyte cytosol (pH ∼ 7.2), which corresponds to the efflux of drug from the acidic digestive vacuole (pH 5.2) into the parasite cytoplasm (pH 7.2). The topology of PfCRT in the oolemma is such that both the N- and C-terminus face the extracellular milieu[3],[22]. In the parasite, the N- and C-terminus face the lumen of the digestive vacuole. CQ uptake kinetics were performed by incubating oocytes in ND96 buffer adjusted to a pH of 4.5, 5.0, 5.5, or 6.0 and supplemented with 50 nM [^3H]CQ and one of 7 different CQ concentrations (10 µM, 50 µM, 100 µM, 200 µM, 300 µM, 400 µM, 500 µM CQ). The reaction was stopped at the 60 min time point, which is in the linear uptake range[22],[34] (Supplementary Fig. 17). For determination of the amount of drug uptake for each oocyte, the reaction medium was removed and the oocytes were washed three times with 2 ml of ice-cold ND96 buffer. Each oocyte was individually transferred to a scintillation vial containing 5% sodium dodecyl sulfate (200 μl) for lysis. The radioactivity of each sample was measured using a liquid scintillation analyzer Tri-Carb 4910 TR (PerkinElmer). Oocytes that were injected with water instead of RNA were analyzed in parallel, representing the uptake of a drug by diffusion and/or endogenous permeation pathways. The resulting value represents the “background“ level of drug accumulation in oocytes (in-depth discussion in[22]). […]

Assay [3] has as its target T2, PfCRT variant D310A (Plasmodium falciparum, UniProt Q9N623, A220S/D310A/I356T/K76T/M74I/N326S/N75E/Q271E/R371I).
T2 sequence (Q9N623 1-424 M74I/N75E/K76T/A220S/Q271E/D310A/N326S/I356T/R371I): T1 sequence (Q9N623 1-424 M74I/N75E/K76T/A220S/Q271E/F322A/N326S/I356T/R371I) with D310A, A322F
The experiment in a line: CQ uptake assay, oocytes expressing D310A. Type of assay: cell-based. As to the method:
as §1, §2, §3

Where [4] appears, read: F322A, 50 µM CQ, 1 h, mean ± SEM.
[5] abbreviates: pH 4.5, single replicates, Fig 1d left.
Setting [6] is: pH 6.0, single replicates, Fig 1d left.
The mark [7] stands for this setting: D310A, 50 µM CQ, 1 h, mean ± SEM.

Substitutions are numbered along the chain they refer to. “And” between values parts separate entries of the source, which are not always exact repeats. Equal entries are not always repeated.

Sequence of PfCRT^Dd2 (Q9N623 whole entry A220S/I356T/K76T/M74I/N326S/N75E/Q271E/R371I): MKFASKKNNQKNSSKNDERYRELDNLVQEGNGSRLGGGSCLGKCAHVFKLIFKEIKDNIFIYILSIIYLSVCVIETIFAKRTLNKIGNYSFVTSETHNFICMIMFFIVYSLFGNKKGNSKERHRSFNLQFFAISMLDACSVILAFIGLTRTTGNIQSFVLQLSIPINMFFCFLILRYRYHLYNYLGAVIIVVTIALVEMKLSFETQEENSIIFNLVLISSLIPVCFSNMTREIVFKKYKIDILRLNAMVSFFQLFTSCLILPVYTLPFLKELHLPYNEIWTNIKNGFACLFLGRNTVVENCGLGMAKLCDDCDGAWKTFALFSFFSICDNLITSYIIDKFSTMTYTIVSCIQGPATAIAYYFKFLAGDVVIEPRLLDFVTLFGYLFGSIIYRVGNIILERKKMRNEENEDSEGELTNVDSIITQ

Take `CCN(CC)CCCC(C)Nc1ccnc2cc(Cl)ccc12` (centres unmarked) [CQ, chloroquine]: the “share of full transport velocity” value in assay [1] (at the pH of the digestive vacuole of 5.2) is given as 60%. For the same compound, the “pH of maximal CQ transport activity” value in assay [1] is given as ~ 6.0 pH. In addition, the “Activity at pH 4.5” value in assay [2] (setting [4]) was determined as 0.72 ± 0.12 pmol h-1 oocyte-1; in assay [3] (setting [7]) it was 0.96 ± 0.15 pmol h-1 oocyte-1. Further, the “Activity at pH 6.0” value in assay [2] (setting [4]) was 1.05 ± 0.12 pmol h-1 oocyte-1; in assay [3] (setting [7]), 1.25 pmol h-1 oocyte-1 and 1.25 ± 0.18 pmol h-1 oocyte-1. Besides, the R-value in assay [2] (F322A, CQ transport at pH 4.5 / pH 6.0) was 0.68 ± 0.04; in assay [3] (D310A, CQ transport at pH 4.5 / pH 6.0) it was 0.77 and 0.77 ± 0.07. In addition, in assay [2] (setting [5]), the “F322A transport activity pH 4.5” value is 0.55 pmol oocyte-1 h-1 and 1.12 pmol oocyte-1 h-1 and 0.61 pmol oocyte-1 h-1 and 0.60 pmol oocyte-1 h-1. Also, in assay [2] (pH 4.5 vs pH 6.0, Fig 1d left), the “F322A R-value” is 0.73 and 0.78 and 0.63 and 0.59. For the same compound, the “F322A transport activity pH 6.0” value in assay [2] (setting [6]) is 0.75 pmol oocyte-1 h-1 and 1.44 pmol oocyte-1 h-1 and 0.97 pmol oocyte-1 h-1 and 1.02 pmol oocyte-1 h-1. Besides, the “D310A transport activity pH 4.5” value in assay [3] (setting [5]) is 0.65 pmol oocyte-1 h-1 and 1.30 pmol oocyte-1 h-1 and 0.92 pmol oocyte-1 h-1. Also, the “D310A R-value” in assay [3] (pH 4.5 vs pH 6.0, Fig 1d left) is 0.79 and 0.92 and 0.61. For the same compound, the “D310A transport activity pH 6.0” value in assay [3] (setting [6]) is 0.82 pmol oocyte-1 h-1 and 1.42 pmol oocyte-1 h-1 and 1.51 pmol oocyte-1 h-1.

These data come from paper PMC10349806 (Nature Communications, 2023).
